#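 Growth conditions: 96-well plates. Treatment: test compound, 48 hours, 5 concentrations. Analysis: linear interpolation between bracketing concentrations; unreached endpoints set to highest concentration. At the GI50, growth is halved.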 Active and inactive are the calls of the source. No stated cut-off is given here; in the data, active = GI50 up to about 1.1 µM and inactive = higher.
# Legend:
# Assay in all cases: NCI anticancer screen, dose series, 48 h
# DMS-273 = system: DMS-273
# SNB-78 = system: SNB-78
# M19-MEL = system: M19-MEL
# XF498 = system: XF498
# KM-20L2 = system: KM-20L2
# DMS-114 = system: DMS-114
# RXF 631 = system: RXF 631
# DLD-1 = system: DLD-1
# HOP-18 = system: HOP-18
Compound,GI50 (DMS-273),GI50 (SNB-78),GI50 (M19-MEL),GI50 (XF498),GI50 (KM-20L2),GI50 (DMS-114),GI50 (RXF 631),GI50 (DLD-1),GI50 (HOP-18)
CC1(C)C(c2ccccc2)C12CCC1(C2=O)C(c2ccccc2)C1(C)C (configuration not stated),22.1 µM (inactive),24.6 µM (inactive),24.6 µM (inactive),18.7 µM (inactive),20.3 µM (inactive),17.9 µM (inactive),–,–,–
O=C1c2cccc3cc([N+](=O)[O-])cc(c23)C(=O)N1NC1=NCCN1,> 100 µM (inactive),> 100 µM (inactive),> 100 µM (inactive),> 100 µM (inactive),> 100 µM (inactive),> 100 µM (inactive),> 100 µM (inactive),> 100 µM (inactive),> 100 µM (inactive)
C=CCOCCCCC(C(C)=O)C(=O)OC (configuration not stated),–,> 100 µM (inactive),> 100 µM (inactive),> 100 µM (inactive),> 100 µM (inactive),–,–,> 100 µM (inactive),> 100 µM (inactive)
Cc1cc(Cl)ccc1NC(=O)CC1SC(N)=NC1=O (configuration not stated),> 100 µM (inactive),–,> 100 µM (inactive),–,> 100 µM (inactive),> 100 µM (inactive),> 100 µM (inactive),> 100 µM (inactive),> 100 µM (inactive)
Cc1ccc(NC(=O)C2C3C=CC(O3)C2C(=O)O)cc1 (configuration not stated),> 100 µM (inactive),> 100 µM (inactive),> 100 µM (inactive),71.9 µM (inactive),> 100 µM (inactive),66.8 µM (inactive),–,> 100 µM (inactive),> 100 µM (inactive)
O=C1c2ccccc2C(=O)c2sc(Nc3ccc(Cl)c(Cl)c3)nc21,5.3 µM (inactive),2.52 µM (inactive),1.12 µM (inactive),2.54 µM (inactive),19.5 µM (inactive),1.67 µM (inactive),7.98 µM (inactive),2.15 µM (inactive),5.06 µM (inactive)
Nc1nc2ncn(CCO)c2c(=S)[nH]1,> 100 µM (inactive),> 100 µM (inactive),> 100 µM (inactive),–,> 100 µM (inactive),> 100 µM (inactive),–,> 100 µM (inactive),> 100 µM (inactive)
CC(C)CC(=O)N1CCN(C(=O)CC(C)C)c2ccccc21,> 100 µM (inactive),91.6 µM (inactive),> 100 µM (inactive),> 100 µM (inactive),> 100 µM (inactive),> 100 µM (inactive),> 100 µM (inactive),> 100 µM (inactive),10.1 µM (inactive)
O=C1[C@@H](c2ccc(Cl)cc2)[C@H]2CC=C[C@H]2N1O,> 100 µM (inactive),> 100 µM (inactive),> 100 µM (inactive),> 100 µM (inactive),–,41.5 µM (inactive),39.7 µM (inactive),> 100 µM (inactive),–
O=[N+]([O-])c1ccccc1[S+]([O-])c1ccccc1 (configuration not stated),47.2 µM (inactive),56.9 µM (inactive),21.3 µM (inactive),> 100 µM (inactive),–,22.1 µM (inactive),–,71 µM (inactive),–
CCc1cccc(C)c1NC(=O)NS(=O)(=O)c1ccc(C)cc1,> 100 µM (inactive),> 100 µM (inactive),> 100 µM (inactive),> 100 µM (inactive),> 100 µM (inactive),> 100 µM (inactive),> 100 µM (inactive),> 100 µM (inactive),> 100 µM (inactive)
CC(C)C(=O)Nc1nc2[nH]cnc2c(=O)[nH]1,> 100 µM (inactive),> 100 µM (inactive),> 100 µM (inactive),> 100 µM (inactive),> 100 µM (inactive),> 100 µM (inactive),> 100 µM (inactive),> 100 µM (inactive),> 100 µM (inactive)
CC1=C2C(c3ccccc3)(c3ccccc3)C3C=CC2(C=N3)N(C(=O)NC2CCCCC2)C1=O (configuration not stated),17.9 µM (inactive),16.3 µM (inactive),–,–,16.8 µM (inactive),17.9 µM (inactive),12.7 µM (inactive),–,18.7 µM (inactive)
CCNC1=Nc2ccc(Cl)cc2C(c2ccccc2)=NN1,10.9 µM (inactive),25.5 µM (inactive),18.1 µM (inactive),25.8 µM (inactive),–,15.4 µM (inactive),19.9 µM (inactive),–,62.2 µM (inactive)
COC(=O)c1cc2c(nc1C)-c1ccccc1OS2(=O)=O,> 100 µM (inactive),82.8 µM (inactive),> 100 µM (inactive),56.6 µM (inactive),> 100 µM (inactive),> 100 µM (inactive),> 100 µM (inactive),> 100 µM (inactive),–
CSc1nc2c(c(O)c(C)c(=O)n2C2OC(COC(C)=O)C(OC(C)=O)C(OC(C)=O)C2OC(C)=O)c(=O)n1C (configuration not stated),> 100 µM (inactive),> 100 µM (inactive),–,> 100 µM (inactive),> 100 µM (inactive),> 100 µM (inactive),> 100 µM (inactive),> 100 µM (inactive),> 100 µM (inactive)
C/C(CCn1[nH]c(=O)ccc1=O)=N\Nc1ccc([N+](=O)[O-])cc1[N+](=O)[O-],25.4 µM (inactive),> 100 µM (inactive),> 100 µM (inactive),> 100 µM (inactive),33.7 µM (inactive),81.8 µM (inactive),> 100 µM (inactive),> 100 µM (inactive),> 100 µM (inactive)
N=C1OC(c2cccc(Cl)c2)C(NNS(=O)(=O)c2ccccc2)=C1O (configuration not stated),32.4 µM (inactive),27.4 µM (inactive),24 µM (inactive),–,39.4 µM (inactive),17.9 µM (inactive),–,15 µM (inactive),> 100 µM (inactive)
Cc1ccc(C2=C(c3ccccc3)C(O)(c3ccccc3)C(c3ccccc3)=C2c2ccc(C)cc2)cc1,–,> 100 µM (inactive),> 100 µM (inactive),44.5 µM (inactive),> 100 µM (inactive),–,> 100 µM (inactive),> 100 µM (inactive),> 100 µM (inactive)
CC(C)(C)c1cc(-c2c3nc(c(-c4cc(C(C)(C)C)cc(C(C)(C)C)c4)c4ccc([nH]4)c(-c4cc(C(C)(C)C)cc(C(C)(C)C)c4)c4nc(c(-c5cc(C(C)(C)C)cc(C(C)(C)C)c5)c5ccc2[nH]5)C=C4)C=C3)cc(C(C)(C)C)c1,> 100 µM (inactive),> 100 µM (inactive),–,> 100 µM (inactive),> 100 µM (inactive),> 100 µM (inactive),> 100 µM (inactive),> 100 µM (inactive),> 100 µM (inactive)
O=[N+]([O-])c1c(/C=N/c2ccccc2)oc(-c2ccc3c(c2)OCO3)c1-c1ccc2c(c1)OCO2,> 100 µM (inactive),> 100 µM (inactive),> 100 µM (inactive),> 100 µM (inactive),> 100 µM (inactive),60.7 µM (inactive),> 100 µM (inactive),> 100 µM (inactive),–
CN1CCC(=O)/C(=C/c2ccccc2)C1,6.55 µM (inactive),19.6 µM (inactive),5.45 µM (inactive),18.7 µM (inactive),12.4 µM (inactive),9.68 µM (inactive),16.7 µM (inactive),6.24 µM (inactive),18.2 µM (inactive)
O=C(O)COc1ccc(C(=O)/C(SS/C(C(=O)c2ccc(OCC(=O)O)c(Cl)c2Cl)=C2\C=C(c3ccc(Cl)cc3)SS2)=C2/C=C(c3ccc(Cl)cc3)SS2)c(Cl)c1Cl,18.1 µM (inactive),6.7 µM (inactive),7.74 µM (inactive),–,25.1 µM (inactive),–,12.1 µM (inactive),11.6 µM (inactive),7.73 µM (inactive)
CN(C)c1ccc(Cc2cc(C(C)(C)C)cc(C(C)(C)C)c2O)cc1,17.4 µM (inactive),18.5 µM (inactive),21.3 µM (inactive),19.9 µM (inactive),18.5 µM (inactive),14.6 µM (inactive),17.3 µM (inactive),21.8 µM (inactive),26 µM (inactive)
c1ccc([B-]23Oc4ccccc4[NH+]2c2ccccc2O3)cc1 (configuration not stated),54.6 µM (inactive),77.4 µM (inactive),–,–,–,24.9 µM (inactive),–,46 µM (inactive),> 100 µM (inactive)
COc1cc(C2c3cc4c(cc3[C@@H](Nc3ccc(N)cc3)C3COC(=O)[C@H]23)OCO4)cc(OC)c1O (some centres not stated),0.361 µM (active),9.16 µM (inactive),2.91 µM (inactive),1.45 µM (inactive),1.94 µM (inactive),1.59 µM (inactive),–,4.57 µM (inactive),9.89 µM (inactive)
CC(=O)OC1CC[C@@]2(C)C(CC[C@]3(C)C2CC=C2[C@@H]4CC(C)(C)CCC4(C)CCC23C)[C@@]1(C)C(=O)O (some centres not stated),16.4 µM (inactive),20.5 µM (inactive),22.2 µM (inactive),20.5 µM (inactive),13.9 µM (inactive),16.4 µM (inactive),12.9 µM (inactive),10.1 µM (inactive),21.9 µM (inactive)
